Measurements reported in PubChem BioAssay (NCI).
Where “and” joins values, the source holds several entries; their conditions need not be identical. Identical values can stand only once.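 96-well plates; 48 h exposure; 5 concentrations. Endpoints by linear interpolation between flanking doses. Not reached: highest tested concentration assigned. At the GI50, growth is halved. Definition used: TGI = concentration required for complete inhibition of growth.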

Tests used:
Test in all cases: growth of human tumour cells (NCI), 48 h
[1] = system: M14 melanoma
[2] = system: HS 578T breast
[3] = system: OVCAR-8 ovarian
[4] = system: T-47D breast
[5] = system: A498 renal
[6] = system: SR leukemia
[7] = system: EKVX NSCLC
[8] = system: 786-0 renal
[9] = system: K-562 leukemia
[10] = system: SF-295 CNS

| Compound | GI50 [1] | TGI [1] | GI50 [2] | TGI [2] | GI50 [3] | TGI [3] | GI50 [4] | TGI [4] | GI50 [5] | TGI [5] | GI50 [6] | TGI [6] | GI50 [7] | TGI [7] | GI50 [8] | TGI [8] | GI50 [9] | TGI [9] | GI50 [10] | TGI [10] |
| --- | --- | --- | --- | --- | --- | --- | --- | --- | --- | --- | --- | --- | --- | --- | --- | --- | --- | --- | --- | --- |
| COc1cnc2c(c1)C(=O)c1c-2n(CCCN2CCN(C)CC2)c(=O)c2cc(Cl)ccc12 | 1.71 µM | 3.61 µM | 12.9 µM | 36.2 µM | 3.09 µM | > 100 µM | 22.8 µM | 98.7 µM | 0.959 µM | 9.61 µM | 0.584 µM | 27.3 µM | 7.73 µM | 31.9 µM | 2.47 µM | 31.8 µM | 1.19 µM | 3.51 µM | 0.674 µM | 20.5 µM |
| CO[C@H](C(=O)N[C@@H](CCCCNC(=O)OCc1ccccc1)C(=O)OC(C)(C)C)[C@@H]1Cc2cc3cc(OC4CC(OC5CC(O)C(O)C(C)O5)C(O)C(C)O4)c(C)c(O)c3c(O)c2C(=O)[C@H]1OC1CC(OC2CC(OC3CC(C)(O)C(O)C(C)O3)C(O)C(C)O2)C(O)C(C)O1 (some centres undefined) | 0.879 µM | 2.48 µM | 1.05 µM | 5 µM | 0.697 µM | > 10 µM | 0.958 µM | > 10 µM | 0.64 µM | 2.03 µM | 0.319 µM | > 10 µM | 1.17 µM | 3.1 µM | 0.563 µM | 1.88 µM | 0.635 µM | > 10 µM | 0.468 µM | 1.72 µM |
| Nc1ccn([C@@H]2C=C(CO)[C@@H](O)[C@H]2O)c(=O)n1 | 0.329 µM |  | 4.56 µM |  |  | 67 µM and > 625 µM | 0.581 µM | 261 µM | 0.242 µM |  | 0.05 µM |  | 2.77 µM | 134 µM | 0.257 µM | 500 µM | 0.0189 µM | 335 µM |  | 316 µM and > 625 µM |
| CN1CCN(Cc2ccc(NC(=O)c3cncc(C#Cc4c(N)ncc5cc(F)ccc45)c3)cc2C(F)(F)F)CC1 | 0.378 µM | 1.11 µM | 1.11 µM | 6.47 µM | 1.27 µM | 3.57 µM | 6.57 µM | 20.2 µM | 0.839 µM | 3.99 µM | 1.47 µM | 50 µM | 2.8 µM | 10.2 µM | 0.892 µM | 1.63 µM | 0.005 µM | 1.09 µM | 6.47 µM | 14 µM |
| COc1cc(-c2nc3ccccc3s2)ccc1OCc1nc2n(n1)S(=O)(=O)c1ccccc1N2C | > 100 µM | > 100 µM | > 100 µM | > 100 µM | > 100 µM | > 100 µM | > 100 µM | > 100 µM | > 100 µM | > 100 µM | > 100 µM | > 100 µM | > 100 µM | > 100 µM | > 100 µM | > 100 µM | 97.4 µM | > 100 µM | > 100 µM | > 100 µM |
| C/C(=C\c1ccn(-c2ccc(N)cc2)n1)[C@@H]1C[C@@H]2O[C@]2(C)CCC[C@H](C)[C@H](O)[C@@H](C)C(=O)C(C)(C)[C@@H](O)CC(=O)O1 |  |  | 0.0863 µM | > 21.6 µM | 0.0481 µM | > 50 µM | 0.028 µM | > 50 µM | 0.102 µM | 3.66 µM | 0.027 µM | > 50 µM | 0.256 µM | > 50 µM | 0.174 µM | > 50 µM | 0.0248 µM | > 50 µM | 0.0721 µM | > 50 µM |
| O=C1/C(=C/c2ccc(Cl)cc2)CN(C(=O)C(Cl)Cl)C/C1=C\c1ccc(Cl)cc1 | 0.242 µM | 0.749 µM | 0.312 µM | 2.33 µM | 0.22 µM | 1.44 µM | 0.297 µM | 1.62 µM | 0.211 µM | 0.771 µM | 0.0395 µM | > 40.1 µM | 0.292 µM | 1.03 µM | 0.183 µM | 0.371 µM | 0.0469 µM | > 68.9 µM | 0.214 µM | 0.683 µM |
| CC(C)=CCC/C(C)=C/CC/C(=C/COP(=O)(OCc1ccc([N+](=O)[O-])o1)N(C)CCCCCl)C(C)(C)C (centres undefined) | 2.69 µM | 11.8 µM |  | 1.06 µM | 10.7 µM | 36.1 µM | 16.4 µM | 51.5 µM | 0.125 µM | 2.16 µM | 0.128 µM | > 100 µM | 6.48 µM | 22.4 µM | 2.53 µM | 8.18 µM | 6.22 µM | > 100 µM |  |  |
| O=C(O)CCC1CCC(c2cc(F)ccc2F)(S(=O)(=O)c2ccc(Cl)cc2)CC1 (centres undefined) | 15.9 µM and > 100 µM | 52.5 µM and > 100 µM | 17.8 µM and 49.3 µM | 55.4 µM and > 100 µM | 74.8 µM and > 100 µM | > 100 µM | 28.6 µM and > 100 µM | > 100 µM |  | 67.1 µM and > 100 µM | 25.5 µM and > 47.3 µM | > 100 µM | 15.1 µM and > 68.5 µM | > 100 µM | 23.8 µM and > 100 µM | > 100 µM | 34.6 µM and 34.7 µM | > 100 µM | > 56.9 µM | > 100 µM |
| COc1ccc2c(c1)Cc1c-2c(NN)nc2ccccc12 | 40.1 µM | > 100 µM | 35.8 µM | > 100 µM | 23.8 µM | > 100 µM | 26.5 µM | > 100 µM | > 100 µM | > 100 µM | 9.94 µM | > 100 µM | 66.1 µM | > 100 µM | 40.4 µM | > 100 µM | 6.65 µM | 85.1 µM | 25.7 µM | > 100 µM |
| COc1cc(C(=O)n2nc(N3CCN(C)CC3)c3cc(N)ccc32)cc(OC)c1OC | 3.74 µM | 16.7 µM | 12.8 µM | > 100 µM | 4.77 µM | > 100 µM | > 100 µM | > 100 µM | 2.82 µM | 7.12 µM | 3.64 µM | 53.3 µM |  |  | 4.42 µM | > 100 µM | 3.57 µM | 13.2 µM | 3.54 µM | 18.2 µM |
| CCOC(=O)c1c(Cl)c2c(n1Cc1cc(OC)cc(OC)c1)-c1oncc1CCC2 | 0.266 µM | > 100 µM | 0.451 µM | > 100 µM | 0.479 µM | > 100 µM | 0.445 µM | > 100 µM | 0.0797 µM | 0.605 µM | 0.121 µM | > 100 µM |  |  | 1.47 µM | > 71.4 µM | 0.225 µM | > 100 µM | 0.246 µM | 1.8 µM |
